Where “and” joins values, the source holds several entries; their conditions need not be identical. Equal values may be shown once. Calls of active or inactive are those of the source. No rule for the calls is given here.
Tested on: not listed separately
Experiment: Confirmatory dose response, V. cholerae DH231 delta cqsS, luciferase light activation (AID 686931)
Details: V. cholerae DH231 (delta cqsS) luciferase light production; at 35 µM (top of the series)

Question: Which activation does the source give for O=C(CC1CCCCC1)Nc1nnc(-c2ccc3c(c2)CCCC3)o1 here?
Answer: 0.843% (inactive)

Same assay, conditions: V. cholerae DH231 (delta cqsS) luciferase light production; at 50 µM (top of the series)

Question: For CCCCCCCCCC(=O)C(O)CC (configuration not stated), which activation is on record?
Answer: -0.408% (inactive)

Same assay, conditions: V. cholerae DH231 (delta cqsS) luciferase light production; at 80 µM (top of the series)

Question: With O=C(Nc1nnc(-c2ccc3c(c2)OCCO3)o1)C1CCCC1 as the compound, how does the activation read?
Answer: 8.16% (inactive)

Question: Which activation does the source give for Cc1ccc2cc3c(NC(=O)c4ccoc4)nn(C)c3nc2c1 here?
Answer: 10.6% (inactive)

Question: Which activation does the source give for O=C(Nc1nnc(-c2ccc3c(c2)CCCC3)o1)C1CCC1 here?
Answer: -0.346% (inactive)

Question: For O=C(Nc1nnc(-c2cccc(Cl)c2)o1)C1CCCCC1, which activation is on record?
Answer: 1.82% (inactive)

Question: For O=C(Nc1nnc(-c2ccc(Cl)cc2)o1)C1CCCCC1, which activation is on record?
Answer: -1.2% (inactive)

Question: For CCC(C)(C)C(=O)Nc1nnc(-c2ccc3c(c2)OCCO3)o1, which activation is on record?
Answer: 0.359% (inactive)

Question: For O=C(CC1CCCCC1)Nc1nnc(-c2cccnc2)o1, which activation is on record?
Answer: -0.959% (inactive)

Same assay, conditions: V. cholerae DH231 (delta cqsS) luciferase light production; at 100 µM (top of the series)

Question: With O=C(Nc1nnc(C2CCCC2)o1)C1CCCCC1 as the compound, how does the activation read?
Answer: -0.731% (inactive)

Question: With Cn1nc(NC(=O)c2ccco2)c2cc3ccc(C(C)(C)C)cc3nc21 as the compound, how does the activation read?
Answer: -1.04% (inactive)

Question: For O=C(Nc1nnc(-c2ccc3c(c2)OCCO3)o1)C(F)(F)c1ccccc1, which activation is on record?
Answer: -1.19% (inactive)

Question: With O=C(Cc1ccc(-c2ccccc2)cc1)NC1CCC1 as the compound, how does the activation read?
Answer: -0.546% (inactive)

Question: For Cc1ccc2cc3c(NC(=O)c4ccc(C)o4)nn(C)c3nc2c1, which activation is on record?
Answer: 0.174% (inactive)

Question: With COc1ccc(S(=O)(=O)Nc2nnc(-c3ccc4c(c3)OCCO4)o2)cc1 as the compound, how does the activation read?
Answer: -1.4% (inactive)

Question: For Cn1ccc(NC(=O)c2ccco2)n1, which activation is on record?
Answer: 0.502% (inactive)

Question: With CCn1nnnc1NCc1ccc(C(C)C)cc1 as the compound, how does the activation read?
Answer: -0.577% (inactive)

Question: For O=C(Nc1nnc(-c2ccccc2Cl)o1)C1CCCCC1, which activation is on record?
Answer: 0.072% (inactive)

Question: With CC(C)c1ccc2cc3c(NC(=O)c4ccco4)nn(C)c3nc2c1 as the compound, how does the activation read?
Answer: 2.47% (inactive)

Question: Which activation does the source give for O=C(Nc1nnc(-c2ccncc2)o1)C1CCC1 here?
Answer: 0.692% (inactive)

Question: Which activation does the source give for O=S(=O)(Nc1nnc(-c2ccc3c(c2)OCCO3)o1)c1ccc(Cl)cc1 here?
Answer: -1.11% (inactive)

Question: With O=C(Nc1nnc(-c2cccnc2)o1)C1CCC1 as the compound, how does the activation read?
Answer: 0.588% (inactive)

Question: For Cc1ccc2cc3c(NC(=O)c4ccccn4)nn(C)c3nc2c1, which activation is on record?
Answer: 1.04% (inactive)

Question: With c1ccc(CNc2nnc(-c3ccc4c(c3)OCCO4)o2)cc1 as the compound, how does the activation read?
Answer: -0.54% (inactive)

Question: For C(=N\c1nnc(-c2ccc3c(c2)OCCO3)o1)/c1ccccc1, which activation is on record?
Answer: 0.573% (inactive)

Question: Which activation does the source give for CN(C)/C=N/c1nnc(-c2ccc3c(c2)OCCO3)o1 here?
Answer: -0.521% (inactive)

Question: Which activation does the source give for CC(C)(C)OC(=O)N1CCC(C(=O)Nc2nnc(-c3ccc4c(c3)OCCO4)o2)CC1 here?
Answer: 0.619% (inactive)

Question: With Cc1ccc2cc3c(NC(=O)c4cc5ccccc5o4)nn(C)c3nc2c1 as the compound, how does the activation read?
Answer: 0.496% (inactive)

Question: Which activation does the source give for CCCCCCCCCC(=O)[C@H](O)CC (racemic) here?
Answer: -0.642% (inactive)

Question: With O=C(Nc1nnc(-c2ccc3c(c2)OCCO3)o1)C1CC1 as the compound, how does the activation read?
Answer: -0.326% (inactive)

Question: With COc1cccc(-c2nnc(NC(=O)C3CCCCC3)o2)c1 as the compound, how does the activation read?
Answer: 3.05% (inactive)

Question: Which activation does the source give for Cc1ccc2cc3c(NC(=O)Cc4ccco4)nn(C)c3nc2c1 here?
Answer: 13.6% (inactive)

Question: With COc1ccc(-c2nnc(NC(C)=O)o2)cc1 as the compound, how does the activation read?
Answer: 1.64% (inactive)

Question: Which activation does the source give for O=C(Nc1nnc(-c2ccc3c(c2)OCCO3)o1)C1CCC1 here?
Answer: 0.218% (inactive)

Question: For CN1CCC(C(=O)Nc2nnc(-c3ccc4c(c3)OCCO4)o2)CC1, which activation is on record?
Answer: 0.079% (inactive)

Tested on: V. cholerae DH231 (delta cqsS) luciferase light production
Experiment: as above
Details: not given

Question: Which AC40 does the source give for Cn1nc(NC(=O)c2ccco2)c2cccnc21 here?
Answer: 20.4 µM

Question: For O=C(Nc1nnc(-c2ccc3c(c2)OCCO3)o1)C1CCCCCC1, which AC40 is on record?
Answer: 10.5 µM

Question: For COc1ccc2cc3c(NC(=O)c4ccco4)nn(C)c3nc2c1, which AC40 is on record?
Answer: 1.83 µM

Question: Which AC40 does the source give for COc1ccc(-c2nnc(NC(=O)C3CCCCC3)o2)cc1 here?
Answer: > 100 µM (inactive)

Question: Which AC40 does the source give for Cc1ccc2cc3c(NC(=O)c4cccs4)nn(C)c3nc2c1 here?
Answer: 75.3 µM

Question: Which AC40 does the source give for Cc1cc2nc3c(cc2cc1F)c(NC(=O)c1ccco1)nn3C here?
Answer: 21.7 µM

Question: Which AC40 does the source give for Cn1nc(NC(=O)c2ccco2)c2ccccc21 here?
Answer: 78.1 µM

Question: For O=C(Nc1nnc(-c2cccnc2)o1)C1CCCCC1, which AC40 is on record?
Answer: 88.1 µM

Question: With COc1ccccc1-c1nnc(NC(=O)C2CCCCC2)o1 as the compound, how does the AC40 read?
Answer: > 100 µM (inactive)

Question: For CCc1ccc2cc3c(NC(=O)c4ccco4)nn(C)c3nc2c1, which AC40 is on record?
Answer: 31 µM

Question: Which AC40 does the source give for Cc1ccc2cc3c(NC(=O)c4ccco4)nn(C)c3nc2c1 here?
Answer: 6.52 µM and 15.8 µM

Question: For Cc1ccc2cc3c(NC(=O)C4CCCC4)nn(C)c3nc2c1, which AC40 is on record?
Answer: 37.9 µM

Question: For Cc1cc(F)cc2nc3c(cc12)c(NC(=O)c1ccco1)nn3C, which AC40 is on record?
Answer: 70.7 µM

Question: Which AC40 does the source give for Cc1cc(F)c2cc3c(NC(=O)c4ccco4)nn(C)c3nc2c1 here?
Answer: 76.2 µM

Question: For Cn1nc(NC(=O)c2ccco2)c2cc3ccccc3nc21, which AC40 is on record?
Answer: 4.18 µM

Question: Which AC40 does the source give for O=C(Nc1nnc(-c2ccc3c(c2)OCCO3)o1)C1CCCCC1 here?
Answer: 4.54 µM and 1.67 µM

Question: For Cc1cc2cc3c(NC(=O)c4ccco4)nn(C)c3nc2cc1C, which AC40 is on record?
Answer: 22.2 µM

Source: PubChem BioAssay AID686931 (Broad Institute, 2013)
